Patent US7892764B2, “System for seizure suppression” (priority 2006, dated 2011)

Tested on: mouse hippocampal slices
Test: Stimulus train-induced after-discharges in hippocampal slices
Type: cell-based
Description: ASIC blockade on seizure-like bursting activity induced by high frequency stimulus trains, e.g., after-discharges (Stasheff et al., 1985), was determined as high frequency electric stimulation generates epileptic bursting without disrupting the balance of excitation versus inhibition thus more closely mimicking epileptogenesis in vivo (Stasheff et al., 1985). Following approximately five trains of stimulation, relatively stable after-discharges were recorded (FIGS. 7A-7E). Amiloride bath perfusion reduced after-discharge duration by about 80% (from 21.0±3.5 sec to 4.7±2.4 sec, n=3; p<0.05) and burst firing frequency by about 90% (from 2.8±0.4 Hz to 0.3±0.1 Hz, n=3, p<0.05, FIG. 7A). Similarly, PcTX1 reduced after-discharge duration from 29.3±8.5 to 11.5±4.1 sec (reduced to 0.44±0.10 of control, n=4, p<0.05) and burst firing frequency from 0.9±0.1 to 0.5±0.2 Hz (reduced to 0.5±0.1 of control, n=4, p<0.05, FIG. 7B). Similar to ASIC1a blockade, seizure activity was attenuated in hippocampal slices from ASIC1^−/− mice (Xiong et al., 2004) (FIGS. 7C-7E). In wild-type (WT) mice, five sets of stimulus trains generated bursting activity with a duration of 13.9±2.0 sec and a firing frequency of 1.6±0.2 Hz, whereas in slices from ASIC1^−/− mice, identical stimulations generated after-discharges of only 5.8±3.3 sec duration and 0.4±0.2 Hz frequency (n=9 for both groups, p<0.05 for difference in duration and p<0.01 for frequency, FIG. 7E).
Preparation of hippocampal slices and brain slice recording. Hippocampal slices were obtained from 8- to 10-week-old mice. The protocol for brain-slice recording was approved by the Institutional Animal Care and Use Committee of Legacy Research. Animals were deeply anesthetized with isoflurane and decapitated. Brains were quickly removed and placed in ice-cold solution that contained: 125 mM sucrose, 2.5 mM KCl, 26 mM NaHCO3, 1.25 mM NaHPO4, 6.0 mM […], 0.5 mM CaCl2, and 10 mM glucose, and was saturated with 95% O2 and 5% CO2 (pH 7.4). Hippocamnpal slices were cut in 400 μm thickness in transverse plane with a vibratome (Leica VT 1000S) and placed in a slice holding chamber (BSC-PC Prechamber, Warner Instrument) and incubated in normal artificial cerebral spinal fluid (aCSF) that contained: 125 mM NaCl, 2.5 mM KCl, 26 mM NaHCO3, 1.25 mM […], 1.0 mM MgSO4, 2.0 mM CaCl2, and 10 mM glucose, and was saturated with 95% O2 and 5% CO2 (pH 7.4).
Following ˜60 min of incubation at room temperature, individual slices were transferred to a submerged slice chamber with a volume of 0.5 mL (Warner Instruments, Hamden, Conn.) and perfused with oxygenated aCSF (35° C.) at a rate of 3-4 mL/min. Recording electrodes were pulled from borosilicate glass and filled with aCSF. The population spike and the field excitatory postsynaptic potentials (fEPSP) were recorded in stratum pyramidale and striatum radiatum of hippocampal CA1 region, by stimulating Schaffer Collaterals.
For low Mg^2+ induced epileptic burst activity, Mg^2+-free aCSF was perfused to the slices for ˜30 min. For stimulus-train induced bursting discharges (STIB), each stimulation train consisted of 120 pulses at 60 Hz and each pulse was 100 μsec in duration (Stasheff et al., 1985). A 10-minute interval of non-stimulation was provided between successive trains of high frequency stimulation. Stimulation electrodes were located in striatum radiatum between CA1 and CA3 region. The population spikes were recorded from striatum pyramidale of the CA3 region.

[1] = 100 μM amiloride bath perfusion

NC(N)=NC(=O)c1nc(Cl)c(N)nc1N [amiloride, 3,5-diamino-6-chloro-N(diaminomethylidene)pyrazine-2-carboxamide]
after-discharge duration [1]: 4.7 ± 2.4 s | burst firing frequency [1]: 0.3±0.1 Hz | reduction of after-discharge duration [1]: about 80% | reduction of burst firing frequency [1]: about 90%

Psalmotoxin 1 [PcTX1]
after-discharge duration (200 ng/mL PcTX1): 11.5 ± 4.1 s | after-discharge duration relative to control (200 ng/mL PcTX1): 0.44±0.10 of control | burst firing frequency (200 ng/mL PcTX1): 0.5±0.2 Hz | burst firing frequency relative to control (200 ng/mL PcTX1): 0.5±0.1 of control
